Results on 55 compounds are retold here after patent US12534451B2, “Small molecule modulators of PanK” (St. Jude Children's Research Hospital, priority 2019, dated 2026).

The structures appear in SMILES notation.

Chain of human PANK3 (Q9H999 whole entry): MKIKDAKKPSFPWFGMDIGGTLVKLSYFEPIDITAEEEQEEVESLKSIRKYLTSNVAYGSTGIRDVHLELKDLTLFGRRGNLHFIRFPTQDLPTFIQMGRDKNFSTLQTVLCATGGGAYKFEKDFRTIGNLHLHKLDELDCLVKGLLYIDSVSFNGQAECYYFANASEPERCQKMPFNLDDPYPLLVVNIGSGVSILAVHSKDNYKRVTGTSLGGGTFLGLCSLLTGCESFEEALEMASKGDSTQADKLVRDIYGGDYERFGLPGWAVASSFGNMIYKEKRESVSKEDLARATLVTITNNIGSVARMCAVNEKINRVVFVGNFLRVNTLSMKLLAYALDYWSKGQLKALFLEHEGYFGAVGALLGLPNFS

The first experiment addresses human PANK3 (Homo sapiens (Human), UniProt Q9H999). Nature of the experiment: PANK activity assay (radiochemical, D-[1-14C]pantothenate). It counts as biochemical. To be noted: 5 nM human PANK3, 2.5 mM ATP, 45 μM pantothenate, 10 min at 37° C.; average ± data range. The method, then: The PanK activity and Surface Plasmon Resonance assays were conducted as explained in the literature.
If the IC^50 was determined to be in the nM range then the assay was repeated in the presence of 0-1 μM or 0-0.1 μM compound to more precisely determine the IC^50. All the experiments were repeated twice in duplicate and the data were an average ±data range.
The experiments mimicking the mixture of ligands present in vivo were performed under different conditions. […] The IC^50 values for the structure-activity study were calculated by fitting the inhibition data to a one-site model of the Michaelis-Menten equation. […] Thus, the data were fit to Morrison's quadratic equation (GraphPad software) that accounts for the impact of enzyme inhibitor binding on the free concentration of inhibitor.
Take `CN(C)c1ccc(CC(=O)N2CCN(c3ccc(C#N)nn3)CC2)cn1` [PZ-4069, 6-(4-(2-(6-(dimethylamino)pyridin-3-yl)acetyl)piperazin-1-yl)pyridazine-3-carbonitrile]: it took 440 ± 45 nM to reach half-maximal inhibition (IC50).
Same read-out and setting: in the case of `CC(=O)Nc1ccc(CC(=O)N2CCN(c3ccc(C#N)nn3)CC2)cc1` [PZ-4070, N-(4-(2-(4-(6-cyanopyridazin-3-yl)piperazin-1-yl)-2-oxoethyl)phenyl)acetamide] it was 65 ± 9.8 nM.
Regarding `C[C@H]1CN(c2ccc(Cl)nn2)CCN1C(=O)Cc1ccc(N(C)C)cc1` [PZ-4111], the IC50 amounted to 11.1 ± 0.7 nM.
Regarding `C[C@@H]1CN(c2ccc(Cl)nn2)CCN1C(=O)Cc1ccc(N(C)C)cc1` [PZ-4112], the IC50 was 39.7 ± 4.7 nM.
In turn, `CN(c1ccc(CC(=O)N2CCN(c3ccc(Cl)nn3)CC2)cc1)S(C)(=O)=O` [PZ-4200] had an IC50 of 120 ± 11.2 nM.
Regarding `CN(C)c1ccc(CC(=O)N2CCN(c3nc4ccccc4s3)CC2)cc1` [PZ-4290], the IC50 stood at 370 ± 47 nM.
The compound `O=C(Cc1ccc(C2CC2)cc1)N1CCN(c2nc3cc(F)ccc3o2)CC1` [PZ-4303] showed an IC50 of 54 ± 6.4 nM.
For the compound `O=C(Cc1ccc(C2CC2)cc1)N1CCN(c2nc3ccccc3o2)CC1` [PZ-4305], half-maximal inhibition (IC50) was put at 173 ± 48.5 nM.
Same read-out and setting: under `O=C(Cc1ccc(C2CC2)cc1)N1CCN(c2nc3ccccc3[nH]2)CC1` [PZ-4312] stands 987 ± 476 nM; under `CN(C)c1ccc(CC(=O)N2CCN(c3nc4cccnc4s3)CC2)cc1` [PZ-4317], 391 ± 129 nM; under `CN(C)c1ccc(CC(=O)N2CCN(c3nc4c(F)cccc4s3)CC2)cc1` [PZ-4318], 183 ± 71 nM.
As to `CN(C)c1ccc(CC(=O)N2CCN(c3nc4cccnc4o3)CC2)cc1` [PZ-4319], inhibition was half-maximal at 346 ± 100 nM (IC50).
Still for that read-out and setting: under `CS(=O)(=O)Nc1ccc(CC(=O)N2CCN(c3nc4cccnc4s3)CC2)cc1` [PZ-4321] stands 5.67 ± 0.39 nM.
Compound `CS(=O)(=O)Nc1ccc(CC(=O)N2CCN(c3nc4cccnc4o3)CC2)cc1` [PZ-4323] showed a half-inhibitory concentration (IC50) of 9.9 ± 1.6 nM.
Still for that read-out and setting: in the case of `O=C(Cc1ccc(C2CC2)c(F)c1)N1CCN(c2nc3cccnc3o2)CC1` [PZ-4343] it was 49 ± 3 nM.
Still for that read-out and setting: under `O=C(Cc1ccc(C2CC2)cc1F)N1CCN(c2nc3cccnc3o2)CC1` [PZ-4344] stands 7.6 ± 0.48 nM; under `O=C(Cc1ccc(C2CC2)c(F)c1)N1CCN(c2nc3ncccc3o2)CC1` [PZ-4348], 5.7 ± 0.49 nM; under `O=C(Cc1ccc(C2CC2)cc1F)N1CCN(c2nc3ncccc3o2)CC1` [PZ-4349], 2.1 ± 0.26 nM.
The same measure, in the same setting: under `O=C(Cc1ccc(C2CC2)cc1)N1CCN(c2nc3ncc(F)cc3o2)CC1` [PZ-4350, 2-(4-cyclopropylphenyl)-1-(4-(6-fluorooxazolo[4,5-b]pyridin-2-yl)piperazin-1-yl)ethenone] stands 1.1 ± 0.12 nM; under `O=C(Cc1ccc(C2CC2)cc1F)N1CCN(c2nc3ncc(F)cc3o2)CC1` [PZ-4352], 0.86 ± 0.078 nM; under `CS(=O)(=O)Nc1ccc(CC(=O)N2CCN(c3nc4ncc(F)cc4o3)CC2)cc1` [PZ-4357], 1.95 ± 0.25 nM.
In turn, `O=C(Cc1ccc(C2CC2)cc1)N1CCN(c2nc3ncc(Cl)cc3o2)CC1` [PZ-4359] displayed an IC50 of 1.23 ± 0.17 nM.
With `O=C(Cc1ccc(C2CC2)c(F)c1)N1CCN(c2nc3ncc(Cl)cc3o2)CC1` [PZ-4360], half-maximal inhibition (IC50) was put at 5.6 ± 0.88 nM.
As to `O=C(Cc1ccc(C2CC2)cc1F)N1CCN(c2nc3ncc(Cl)cc3o2)CC1` [PZ-4361], the IC50 was 0.81 ± 0.15 nM.
In the case of `O=C(Cc1ccc(Cl)cc1)N1CCN(c2nc3ncc(F)cc3o2)CC1` [PZ-4363], the IC50 was found to be 37.5 ± 2.4 nM.
Still for that read-out and setting: in the case of `Cc1ccc2oc(N3CCN(C(=O)Cc4ccc(C5CC5)cc4)CC3)nc2n1` [PZ-4364] it was 77.3 ± 8.2 nM.
In the case of `O=C(Cc1ccc(C2CC2)cc1F)N1CCN(c2nc3ccc(F)cc3o2)CC1` [PZ-4383], the IC50 worked out at 3.4 ± 0.33 nM.
Turning to `O=C(Cc1ccc(C2CC2)cc1)N1CCN(c2nc3cc(F)cnc3o2)CC1` [PZ-4386], 2.1 ± 0.21 nM corresponded to half-maximal inhibition (IC50).
Compound `CC(C)c1ccc(CC(=O)N2CCN(c3nc4cccnc4s3)CC2)cc1` [PZ-4432] displayed an IC50 of 3.95 ± 0.26 nM.
On to `O=C(Nc1ccc(C2CC2)cc1F)N1CCN(c2nc3c(F)cc(F)cc3s2)CC1` [PZ-4433], for which 1.79 ± 0.09 nM corresponded to half-maximal inhibition (IC50).
On the same count and under the same terms, in the case of `CC(C)c1ccc(NC(=O)N2CCN(c3nc4c(F)cc(F)cc4s3)CC2)cc1` [PZ-4434] it was 1.04 ± 0.06 nM; in that of `CC(C)c1ccc(CC(=O)N2CCN(c3nc4ncc(F)cc4o3)CC2)cc1` [PZ-4435], 0.33 ± 0.02 nM; in that of `O=C(Oc1ccc(C2CC2)cc1)N1CCN(c2nc3ncc(F)cc3o2)CC1` [PZ-4436], 2 ± 0.18 nM.
The compound `CC(C)c1ccc(CC(=O)N2CCN(c3nc4cc(F)cnc4o3)CC2)cc1` [PZ-4462] registered a half-inhibitory concentration (IC50) of 1.37 ± 0.16 nM.
On the same count and under the same terms, in the case of `O=C(Cc1ccc(C2CC2)cc1)N1CCN(c2nc3cc(F)cnc3o2)CC1` [PZ-4463] it was 10.3 ± 0.55 nM; in that of `CN(C)c1ccc(CC(=O)N2CCN(c3nc4ncc(F)cc4o3)CC2)cc1` [PZ-4467], 2.62 ± 0.18 nM; in that of `CC(C)c1ccc(CC(=O)NCC2(CCl)CN(c3ccc(Cl)nn3)C2)cc1` [PZ-4468], 1.2 ± 0.13 nM.
As for `O=C(Cc1ccc(C2CC2)cc1)NCC1(CCl)CN(c2ccc(Cl)nn2)C1` [PZ-4469, N-((3-(chloromethyl)-1-(6-chloropyridazin-3-yl)azetidin-3-yl)methyl)-2-(4-cyclopropylphenyl)acetamide], the concentration for half-maximal inhibition (IC50) is 5.4 ± 0.42 nM.
Consider `C[C@@H]1CN(c2nc3cc(F)cnc3o2)CCN1C(=O)Cc1ccc(C2CC2)cc1` [PZ-4470], for which the IC50 was 3.88 ± 0.24 nM.
Take `CC(C)c1ccc(CC(=O)N2CCN(c3nc4cc(F)cnc4o3)C[C@H]2C)cc1` [PZ-4471]: the midpoint of inhibition, the IC50, lay at 0.88 ± 0.09 nM.
Still for that read-out and setting: in the case of `O=C(Cc1ccc(C2CC2)cc1)NCC1(CCl)CN(c2nc3cc(F)cnc3o2)C1` [PZ-4472] it was 21.8 ± 1.78 nM; in that of `CC(C)c1ccc(CC(=O)NCC2(CCl)CN(c3nc4cc(F)cnc4o3)C2)cc1` [PZ-4473], 7.51 ± 0.62 nM; in that of `C[C@H]1CN(C(=O)Cc2ccc(C3CC3)cc2)CCN1c1nc2cc(F)cnc2o1` [PZ-4474], 1.37 ± 0.14 nM.
Regarding `CC(C)c1ccc(CC(=O)N2CCN(c3nc4cc(F)cnc4o3)[C@@H](C)C2)cc1` [PZ-4475], the IC50 amounted to 0.76 ± 0.05 nM.
`CC(C)c1ccc(CC(=O)N2CCN(c3ncc4ccsc4n3)CC2)cc1` [PZ-4478] registered an IC50 of 125 ± 19.2 nM.
Still for that read-out and setting: in the case of `O=C(Cc1ccc(C2CC2)cc1)N1CCN(c2ncc3ccsc3n2)CC1` [PZ-4479] it was 713 ± 294 nM.
Same read-out and setting: under `CC(=O)OCC1(CNC(=O)Cc2ccc(C3CC3)cc2)CN(c2ccc(Cl)nn2)C1` [PZ-4510] stands 1110 ± 852 nM; under `O=C(Cc1ccc(C2CC2)cc1)NCC1(CO)CN(c2ccc(Cl)nn2)C1` [PZ-4511, N-((1-(6-chloropyridazin-3-yl)-3-(hydroxymethyl)azetidin-3-yl)methyl)-2-(4-cyclopropylphenyl)acetamide], 606 ± 237 nM.

The next experiment concerns Human C3A [HepG2/C3A] cells. Nature of the experiment: Cellular total CoA determination in C3A cells. It is filed as cell-based. To be noted: 24 hrs of treatment. The method, then:
Human C3A [HepG2/C3A, derivative of HepG2] cells (ATCC #CRL-10741) were purchased from ATCC® and maintained in Eagle's minimum Essential medium (ATCC) supplemented with 2 mM glutamine, 10% fetal bovine serum (FCS, Altanta Biologicals), 50 U/ml penicillin and […] streptomycin. The C3A cell line was confirmed to be mycoplasma-free. Test compounds or vehicle control (DMSO) was added and after 24 hrs of treatment the cells were washed with PBS and harvested and subjected to total CoA determination.
Cultured cells were resuspended in 2 ml cold water to which 500 μl of 0.25M KOH was added, derivatized with monobromobimane (mBBr, Life technologies) and quantified by HPLC. 30 mg of frozen tissue is homogenized in 2 ml of 1 mM KOH and then derivatized with mBBr. The mBBr derivatized samples were fractionated by reverse-phase HPLC using a Gemini C18 3 μm column (150×4.60 mm) from Phenomenex. The chromatography system was a Waters e2695 separation module with a UV/Vis and fluorescence detector and controlled by Empower 3 software. Solvent A was 50 mM potassium phosphate pH 4.6, and solvent B was 100% acetonitrile. Twenty microliters of sample was injected onto the column, and the flow rate was 0.5 ml/min. The HPLC program was the following: starting solvent mixture of 90% A/10% B, 0-2 min isocratic with 10% B, 2-6 min linear gradient from 10% B to 15% B, 6-18 min concave gradient from 15% B to 40% B, 18-23 min isocratic with 40% B, 23-25 min linear gradient from 40 to 10%, and 25-30 min isocratic with 10% B. The UV/vis detector was set at 393 nm, and the fluorescence detector was set with excitation at 393 nm and emission at 470 nm. The elution position of the mBBr-CoA, was determined by comparison with mBBr-CoA prepared from commercial CoA (Avanti Polar Lipids). The areas under the mBBr-derivatized CoA was integrated and compared to known concentrations of the mBBr-CoA standard.
On to `CN(C)c1ccc(CC(=O)N2CCN(c3ccc(C#N)nn3)CC2)cc1` [PZ-4060, 6-(4-(2-(4-(dimethylamino)phenyl)acetyl)piperazin-1-yl)pyridazine-3-carbonitrile], for which the “C3A CoA% elevation” value turned out to be 230.5%.
For the compound `CN(C)c1ccc(CC(=O)N2CCN(c3ccc(Cl)nn3)CC2)cc1` [PZ-4061, 1-(4-(6-chloropyridazin-3-yl)piperazin-1-yl)-2-(4-(dimethylamino)phenyl)ethanone], the “C3A CoA% elevation” value was 418.7%.
`CC(=O)Nc1ccc(CC(=O)N2CCN(c3ccc(Cl)nn3)CC2)cc1` [PZ-4071, N-(4-(2-(4-(6-chloropyridazin-3-yl)piperazin-1-yl)-2-oxoethyl)phenyl)acetamide]: the “C3A CoA% elevation” value amounted to 185.3%.
Turning to `CS(=O)(=O)Nc1ccc(CC(=O)N2CCN(c3ccc(C#N)nn3)CC2)cc1` [PZ-4202], the “C3A CoA% elevation” value is reported as 183.3%.
`CCS(=O)(=O)Nc1ccc(CC(=O)N2CCN(c3ccc(Cl)nn3)CC2)cc1` [PZ-4216]: the “C3A CoA% elevation” value is given as 54.9%.
The same measure, in the same setting: under `O=C(Cc1ccc(C2CC2)cc1)N1CCN(c2ccc(C(F)(F)F)nn2)CC1` [PZ-4283, 2-(4-cyclopropylphenyl)-1-(4-(6-(trifluoromethyl)pyridazin-3-yl)piperazin-1-yl)ethanone] stands 218.2%.
The same measure, in the same setting: in the case of `CS(=O)(=O)Nc1ccc(CC(=O)N2CCN(c3ccc(C(F)(F)F)nn3)CC2)cc1` [PZ-4295] it was 140.8%.

For orientation: IC50 means the concentration needed to halve the response being measured.
